These results are taken from ChEMBL document CHEMBL1201862, “PubChem BioAssay data set” (2004).

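Where inhibition never reached the appropriate level, the endpoint shown equals the highest concentration tested. Otherwise, values were interpolated linearly from a five-concentration, 48-hour dose response in 96-well plates. GI50 marks 50% less growth.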 Calls of active or inactive are those of the source. No stated cut-off is given here; in the data, active = GI50 up to about 1.1 µM and inactive = higher.

Test systems include MCF7; HCT-15; MOLT-4; KM12; NCI-H522; SK-MEL-5; OVCAR-3; ACHN; CAKI-1; RXF 393; HL-60; SF-268; HCT-116; SN12C; HCC 2998; COLO 205; A498; RPMI-8226; UACC-62; UO-31.
Common to all, as to assay: NCI anticancer screen, dose series, 48 h

For the compound `Cc1ccc(S(=O)(=O)NNC2Oc3cc4c(cc3C(c3ccccc3O)C2C)OCO4)cc1` (configuration not stated), the GI50 was 14.9 µM (inactive) with MCF7; 4.9 µM with HCT-15; 10.4 µM (inactive) with MOLT-4; 12.2 µM (inactive) with KM12; 12.4 µM (inactive) with NCI-H522; 14.5 µM (inactive) with SK-MEL-5. The GI50 was 11.4 µM (inactive) with OVCAR-3; 13.2 µM (inactive) in the assay with ACHN; 11.5 µM (inactive) in the assay on CAKI-1; 4.22 µM (inactive) in the assay on RXF 393; 18.4 µM (inactive) in the assay on HL-60; 14 µM (inactive) in the assay with SF-268. Besides, the GI50 in the assay with HCT-116 is 10.4 µM (inactive); with SN12C, 15.3 µM (inactive); in the assay with HCC 2998, 16.9 µM (inactive); with COLO 205 it was 14.7 µM (inactive); with A498, 16.8 µM (inactive); with RPMI-8226, 12.2 µM (inactive). The GI50 in the assay with UACC-62 is 15.7 µM (inactive); in the assay on UO-31, 11 µM (inactive).
Turning to `CCOc1cc2c(cc1O)C(O)C[C@@H]1[C@@H]2CC[C@]2(C)[C@@H](O)CC[C@@H]12` (some centres not stated), the GI50 in the assay on MCF7 was 0.268 µM (active); in the assay with HCT-15, 0.218 µM; with MOLT-4, 0.692 µM (active); in the assay with KM12, 3.24 µM (inactive); in the assay on NCI-H522 it was 0.129 µM (active); with SK-MEL-5 it was 0.236 µM (active). Further, the GI50 with OVCAR-3 is 0.347 µM (active); in the assay on ACHN, 0.553 µM (active); with CAKI-1 it was 0.514 µM (active); in the assay on RXF 393, 1.44 µM (inactive); with HL-60 it was 0.0822 µM (active); in the assay on SF-268, 4.16 µM (inactive). The GI50 with HCT-116 was 0.261 µM (active); in the assay with SN12C it was 0.61 µM (active); in the assay with HCC 2998 it was 3.03 µM (inactive); in the assay on COLO 205 it was 19.3 µM (inactive); in the assay on A498 it was 0.0501 µM (active); with RPMI-8226, 0.467 µM (active). The GI50 in the assay on UACC-62 was 0.284 µM (active); in the assay with UO-31, 0.767 µM (active).
Take `CC12Nc3ccccc3N1C(=O)c1ccccc12` (configuration not stated): the GI50 in the assay with MCF7 is > 100 µM (inactive); in the assay on HCT-15, > 100 µM; with MOLT-4 it was > 100 µM (inactive); in the assay on KM12, > 100 µM (inactive); in the assay on NCI-H522, > 100 µM (inactive); in the assay on SK-MEL-5, > 100 µM (inactive). The GI50 with OVCAR-3, in the assay with ACHN, in the assay with CAKI-1, with RXF 393, in the assay on HL-60 and in the assay with SF-268 was > 100 µM (inactive) throughout. Also, the GI50 in the assay on HCT-116, in the assay with SN12C, in the assay with HCC 2998, in the assay on COLO 205, in the assay with A498 and in the assay with RPMI-8226 was > 100 µM (inactive) each time. Besides, the GI50 in the assay on UACC-62 and in the assay with UO-31 was > 100 µM (inactive) throughout.
For the compound `C=C1C(=O)OC2/C=C(\C)CC/C=C(/C)CC(OC(=O)/C(=C/CO)CO)C12` (configuration not stated), the GI50 was 19.6 µM (inactive) with MCF7; 17.3 µM in the assay on HCT-15; 25.6 µM (inactive) in the assay with MOLT-4; > 100 µM (inactive) in the assay on KM12; 17.1 µM (inactive) in the assay with NCI-H522; 17.3 µM (inactive) with SK-MEL-5. For the same compound, the GI50 in the assay on OVCAR-3 is 25.2 µM (inactive); with ACHN, 17.8 µM (inactive); with CAKI-1 it was 18.9 µM (inactive); in the assay with RXF 393, 11 µM (inactive); with HL-60, 3.33 µM (inactive); in the assay on SF-268 it was 26.7 µM (inactive). The GI50 in the assay on HCT-116 is > 10 µM (inactive); with HCC 2998 it was 23 µM (inactive); with COLO 205 it was 16.9 µM (inactive); in the assay on A498, > 10 µM (inactive); with RPMI-8226, 23.2 µM (inactive); with UACC-62 it was 16.8 µM (inactive). In addition, the GI50 with UO-31 was 17 µM (inactive).
Turning to `CC1(C)CC(=O)C2=C(C1)NC1=C(C(=O)CC(C)(C)C1)C2c1ccc([N+](=O)[O-])cc1`, the GI50 is > 100 µM (inactive) in the assay with MCF7; > 100 µM in the assay on HCT-15; > 100 µM (inactive) with MOLT-4; > 100 µM (inactive) with KM12; > 100 µM (inactive) in the assay on NCI-H522; > 100 µM (inactive) in the assay on SK-MEL-5. Also, the GI50 in the assay on OVCAR-3, with ACHN, with CAKI-1, with RXF 393, in the assay on HL-60 and in the assay with SF-268 was > 100 µM (inactive) each time. Further, the GI50 in the assay on HCT-116, in the assay on SN12C, in the assay with HCC 2998, in the assay on COLO 205, in the assay on A498 and with RPMI-8226 was > 100 µM (inactive) in each case. The GI50 with UACC-62 and with UO-31 was > 100 µM (inactive) each time.
For the compound `CC1C(NNC(N)=O)Oc2cc3c(cc2C1c1ccccc1O)OCO3` (configuration not stated), the GI50 in the assay on MCF7 is 36.8 µM (inactive); with HCT-15 it was 33.6 µM; in the assay on MOLT-4, 30 µM (inactive); in the assay on KM12 it was 31.2 µM (inactive); with NCI-H522 it was 14.8 µM (inactive); with SK-MEL-5 it was 27.4 µM (inactive). Besides, the GI50 in the assay with OVCAR-3 was 33.1 µM (inactive); in the assay on ACHN it was 39.5 µM (inactive); in the assay on CAKI-1, 29.5 µM (inactive); in the assay with RXF 393, 23.8 µM (inactive); with HL-60 it was 14.9 µM (inactive); in the assay with SF-268, 39.6 µM (inactive). Moreover, the GI50 in the assay with HCT-116 was 26.2 µM (inactive); with SN12C, 48.3 µM (inactive); with HCC 2998 it was 84.3 µM (inactive); with COLO 205, > 10 µM (inactive); in the assay on A498, 25.9 µM (inactive); in the assay on RPMI-8226, 21.5 µM (inactive). Further, the GI50 in the assay on UACC-62 is 30.4 µM (inactive); in the assay on UO-31, 52.5 µM (inactive).
With `CC1(C)C(=O)/C=C\C(=O)C(C)(C)C2=CC=C(O2)C(C)(C)C(=O)C(Br)C(Br)C(=O)C(C)(C)C2=CC=C1O2` (configuration not stated), the GI50 was 33.6 µM (inactive) with MCF7; 53.1 µM in the assay with HCT-15; 3.3 µM (inactive) with MOLT-4; 71.8 µM (inactive) in the assay with KM12; 21.8 µM (inactive) in the assay on NCI-H522; 45 µM (inactive) with SK-MEL-5. Besides, the GI50 is 29.9 µM (inactive) with OVCAR-3; > 46.5 µM (inactive) in the assay on ACHN; 58.6 µM (inactive) with CAKI-1; 31.3 µM (inactive) in the assay with RXF 393; 4.76 µM (inactive) in the assay with HL-60; > 66.5 µM (inactive) with SF-268. Further, the GI50 in the assay with HCT-116 was 17.9 µM (inactive); with SN12C, > 80 µM (inactive); in the assay on HCC 2998, > 100 µM (inactive); with COLO 205, > 81.8 µM (inactive); in the assay with A498, > 100 µM (inactive); with RPMI-8226 it was 2.58 µM (inactive). In addition, the GI50 with UACC-62 is 24 µM (inactive); with UO-31, > 92.3 µM (inactive).
For the compound `[C-]#[N+]C(=C\c1ccc(O)cc1)/C(=C/c1ccc(O)cc1)[N+]#[C-]` [XANTOCILLIN], the GI50 with MCF7 was 1.55 µM (inactive); in the assay on HCT-15 it was 1.45 µM; with MOLT-4, 1.57 µM (inactive); in the assay with KM12, 2.16 µM (inactive); with NCI-H522 it was 3.14 µM (inactive); with SK-MEL-5, 2.04 µM (inactive). Further, the GI50 with OVCAR-3 is 2.33 µM (inactive); in the assay on ACHN, 2.03 µM (inactive); with CAKI-1, 2.25 µM (inactive); in the assay with RXF 393, 1.85 µM (inactive); with HL-60, 1.07 µM (active); in the assay on SF-268, 2.96 µM (inactive). The GI50 with HCT-116 was 0.6 µM (active); with SN12C it was 2.06 µM (inactive); in the assay with HCC 2998 it was 3.49 µM (inactive); in the assay on COLO 205, 20.1 µM (inactive); in the assay on A498, 3.06 µM (inactive); with RPMI-8226, 4.39 µM (inactive). For the same compound, the GI50 in the assay on UACC-62 is 1.84 µM (inactive); in the assay on UO-31 it was 1.48 µM (inactive).
As for `O=C1C(=O)c2cc([N+](=O)[O-])ccc2-c2ccc([N+](=O)[O-])cc21`, the GI50 is 0.933 µM (active) in the assay with MCF7; 0.785 µM in the assay with HCT-15; 0.288 µM (active) with MOLT-4; 0.935 µM (active) with KM12; 0.863 µM (active) in the assay with NCI-H522; 1.92 µM (inactive) in the assay with SK-MEL-5. The GI50 in the assay with OVCAR-3 was 0.29 µM (active); in the assay with CAKI-1, 0.733 µM (active); with RXF 393 it was 0.191 µM (active); in the assay with HL-60 it was 0.246 µM (active); in the assay on SF-268 it was 0.484 µM (active); with HCT-116, 0.177 µM (active). The GI50 with SN12C was 0.927 µM (active); in the assay on HCC 2998, 2.25 µM (inactive); in the assay on COLO 205, 3.01 µM (inactive); with A498 it was 1.9 µM (inactive); in the assay with RPMI-8226, 0.302 µM (active); in the assay with UACC-62, 0.466 µM (active). Further, the GI50 in the assay with UO-31 is 1.51 µM (inactive).
In the case of `CCN(CC)c1c(C)c(C(=O)OC)nn1-c1ccccc1`, the GI50 in the assay with MCF7 was 80.4 µM (inactive); in the assay with HCT-15, > 100 µM; with MOLT-4, 43.1 µM (inactive); in the assay with KM12, > 85.3 µM (inactive); with NCI-H522 it was 63.8 µM (inactive); with SK-MEL-5, 32.8 µM (inactive). The GI50 with OVCAR-3 was 60.5 µM (inactive); in the assay with CAKI-1, > 44.7 µM (inactive); in the assay on RXF 393, 33.3 µM (inactive); with HL-60 it was 35.2 µM (inactive); with SF-268 it was 81.3 µM (inactive); in the assay with HCT-116 it was 89.1 µM (inactive). Moreover, the GI50 with SN12C is > 100 µM (inactive); in the assay on HCC 2998 it was > 43.7 µM (inactive); in the assay with COLO 205 it was > 100 µM (inactive); in the assay on A498 it was > 85.1 µM (inactive); in the assay on RPMI-8226 it was 23.2 µM (inactive); in the assay on UACC-62, > 100 µM (inactive). For the same compound, the GI50 with UO-31 was 33 µM (inactive).
